pKi: −log10 of the molar value. “Also recorded” adds a separate entry of the source. Non-standard residues stand in square brackets, D forms with d. Residues, ends and D or L forms follow the SMILES beside them. Nle = CCCC[C@H](N)C(=O)O
What was measured:
[1] = tested on: human cell line RAJI-K^b; test: MHC-I antigen presentation in human cells; type: cell-based; settings: FIG. 8
Description: (§1) Antigen-presenting cells (APCs)--mouse B lymphoblastoid cell line (LB27.4)--were washed free of serum and loaded with an ovalbumin peptide (residues 257-263), which corresponds to the sequence these cells naturally generate and present. The APCs were incubated 1 hr at 37° C., electroporated with antigen, incubated 10 min on ice and washed. The antigen loaded cells were incubated 2 hrs at 37° C., fixed with paraformaldehyde, and washed. MG 101 at the concentrations indicated in FIG. 5 was present in all steps prior to fixation. APCs were assayed for antigen presentation as described in Rock et al., J. Immunol. 145:804-811 (1990) and Carbone et al., J. Exp Med. 171:377-387 (1990). […] In the left panel, APCs were treated with (open circles) or without (closed circles) MG 101 and electroporated with ovalbumin. In the right panel, APCs were treated with (open circles) or without (closed circles) MG 101 and electroporated with ovalbumin peptide. Example 7 was repeated except that the human cell line RAJI-K^b was used.

[2] = target: T1, 26S proteasome (Oryctolagus cuniculus, UniProt G1T4Q9); test: Inhibition of the 26S proteasome (kinetic experiments); type: biochemical, Rabbit; settings: summary of enzyme inhibition; read-out: Ki, 26S proteasome complex activity
T1 sequence (G1T4Q9 60-263): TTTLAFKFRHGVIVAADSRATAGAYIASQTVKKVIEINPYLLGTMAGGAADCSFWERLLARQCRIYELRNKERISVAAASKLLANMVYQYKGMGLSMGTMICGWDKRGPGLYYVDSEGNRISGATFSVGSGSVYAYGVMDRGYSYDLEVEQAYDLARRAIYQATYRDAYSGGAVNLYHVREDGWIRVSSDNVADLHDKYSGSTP
T1 sequence (G1SU71 1-241 partner): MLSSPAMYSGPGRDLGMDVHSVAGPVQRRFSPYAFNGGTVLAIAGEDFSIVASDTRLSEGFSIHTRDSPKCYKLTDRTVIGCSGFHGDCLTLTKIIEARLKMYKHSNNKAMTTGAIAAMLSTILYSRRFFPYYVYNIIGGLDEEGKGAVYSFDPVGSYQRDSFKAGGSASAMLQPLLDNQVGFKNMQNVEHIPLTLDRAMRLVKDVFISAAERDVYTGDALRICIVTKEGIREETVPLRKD
Text: (§2) Tables I-III summarize results from kinetic experiments that measured the inhibition of the 20S and 26S proteasomes, as well as cathepsin B and calpain, enzymes that may also be involved in muscle protein turnover. In these tables, Ki values are reported, which are dissociation constants for the equilibrium that is established when enzyme and inhibitor interact to form the enzyme:inhibitor complex.
(§3) The substances and assay conditions are briefly summarized in the footnotes to Table I. MG 101 and MG 102, also known as Calpain Inhibitor I and II, were purchased from Calbiochem as catalogue products.
(^b) Rabbit muscle. Substrate: […]. [Mg:ATP] = 2 mM.

[3] = target: T2, 20S proteasome (Oryctolagus cuniculus, UniProt G1T4Q9); test: Inhibition of the 20S proteasome peptidase activity (kinetic experiments); type: biochemical, Rabbit
T2 sequence (G1T4Q9 60-263): T1 sequence (G1T4Q9 60-263)
T2 sequence (G1SU71 1-241 partner): T1 sequence (G1SU71 1-241 partner)
Text: as §2, §3
(^a) Rabbit muscle. SDSactivated. Substrate: SucLLVYAMC.

[4] = tested on: rat diaphragm muscle; test: Protein degradation in incubated rat diaphragm
Description: Rat diaphragm muscle was cut into quarters and incubated in medium containing a mixture of amino acids, insulin, inhibitors of lysosomal and calcium dependent proteolysis, and MG 101 at the concentrations shown in FIG. 2. After 1 hour, ^3 H-phenylalanine was added and the incubation continued for 2 hours. Under these conditions, the ATP-dependent ubiquitin pathway is largely responsible for muscle protein degradation. After incubation, the tissue was homogenized and free tyrosine of the homogenate and medium was assayed separately. ^3 -phenylalanine incorporation into protein was also measured. Values are the means +SE of data from 7 animals. Protein synthesis was calculated from the incorporation of ^3 H-phenylalanine, and net protein breakdown was calculated from the release of tyrosine into the incubation medium. The total rate of protein breakdown is calculated from the equation:
Total protein breakdown=Net protein breakdown+Protein synthesis

[5] = target: chymotrypsin-like activity of the proteasome; settings: Vinitsky et al. 1992; slow binding inhibitors; cited from earlier work
[6] = tested on: mouse B lymphoblastoid cell line (LB27.4); test: MHC-I antigen presentation, electroporated antigen-presenting cells; type: cell-based
Description: as §1, with “peptide.” for “peptide. Example 7 was repeated except that the human cell line RAJI-K^b was used.”

[7] = tested on: mouse B lymphoblastoid cell line (LB27.4); test: MHC-I antigen presentation, intact cells (OVA loaded by hypotonic lysis of pinosomes); type: cell-based; settings: 50 μM MG 101 in media; FIG. 6
Description: as §1, with “peptide. Conditions were the same as in” for “peptide.”, “7,” for “7 was repeated”, “that (1) in one group of cells (referred to as MG 101 in media) MG 101 (50 μM) was omitted from” for “that”, “antigen load while in a parallel group (referred to as MG 101 in Ag load) MG 101 (50 μM)” for “human cell line RAJI-K^b”, “included in the antigen load; and (2) OVA was introduced into the cytoplasm by hypotonic lysis of pinosomes (3) instead of electroporation.” for “used.”

Compound: CCCC[C@@H](C=O)NC(=O)[C@H](CC(C)C)NC(=O)[C@H](CC(C)C)NC(C)=O [MG 101, Ac-Leu-Leu-Nle-H] (Ac-Leu-Leu-[Nle]-aldehyde)
- Presentation of antigen from ovalbumin in human cells [1]: prevents antigen presentation in human cells; also recorded: inhibits presentation of antigen from ovalbumin in human cells
- pKi [2]: 5.54
- Mode of inhibition of peptidase activity of muscle 20S proteasome ([3]; FIG. 1): competitive inhibitor
- pKi ([3]; both latent and active forms of 20S proteasome, read-out: Ki, peptidase activities of 20S proteasome): 5.15 to 6.85
- Amino acid pools in incubated muscle [4]: nor does it significantly alter amino acid pools
- Protein synthesis in incubated muscle ([4]; 3H-phenylalanine incorporation): does not inhibit protein synthesis
- Protein degradation in incubated rat diaphragm ([4]; lysosomal and calcium dependent proteolysis inhibited, FIG. 2): inhibits the breakdown of muscle protein; also recorded: inhibition of protein degradation
- pKi [5]: 5.24
- MHC-I presentation of ovalbumin peptide ([6]; APCs electroporated with ovalbumin peptide, FIG. 5 right panel): fails to block the presentation of the specific peptide; also recorded: does not inhibit the presentation of electroporated peptide
- MHC-I presentation of ovalbumin ([6]; APCs electroporated with ovalbumin, FIG. 5 left panel): inhibits the presentation of ovalbumin with class I MHC molecules; also recorded: inhibits presentation of antigen from ovalbumin
- Antigen presentation from ovalbumin in intact cells [7]: can enter into living cells and inhibit antigen processing; also recorded: inhibits presentation of antigen from ovalbumin

— patent US5693617A, “Inhibitors of the 26s proteolytic complex and the 20s proteasome contained therein” (ProScript, Inc., priority 1995, dated 1997)
